Where only a bound is given, the exact number is not on record here.

Experimental findings from US20250302832A1, “PYRAZINE DERIVATIVES AND USES THEREOF” (FOGHORN THERAPEUTICS INC., priority 2022, published 2025) are described below.

The target in experiment [1] is T1, HiBit-BRG1 fusion protein (Homo sapiens, UniProt P51532).
T1 construct: expressed in transfected cells
The experiment can be described thus: HiBiT-BRG1 cell-based degradation assay (Nano-Glo HiBiT lytic detection, 24 h). The following applies: HeLa cell line expressing HiBit-BRG1 and LgBit; for Dmax: read-out: BRG1 HiBit Degradation Maximum (%); for DC50: read-out: BRMG1 HiBit Degradation IC50. Put shortly:
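HeLa cells stably expressing HiBiT-BRG1 and LgBiT, 5000 per well, compound-treated 24 h, equilibrated 15 min at room temperature, then lysed with LgBiT-containing Nano-Glo HiBiT lytic reagent and luminescence read. % degradation normalised between DMSO (high control) and 2 μM reference BRM/BRG1 degrader (low control).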
(In general: With HiBiT, luminescence reflects the tagged protein that the partner subunit can reach.)

Another experiment addresses T2, HiBit-BRM fusion protein (Homo sapiens, UniProt P51531).
T2 construct: expressed in transfected cells
The experiment can be described thus: HiBiT-BRM cell-based degradation assay (Nano-Glo HiBiT lytic detection, 24 h). The note with it: HeLa cell line expressing HiBiT-BRM; for DC50: read-out: BRM HiBit Degradation IC50. Put shortly:
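Stable HeLa HiBiT-BRM cells treated 24 h with compounds (10-point 3-fold dilutions, 30 μM final top dose, duplicate). HiBiT levels read by Nano-Glo lytic luminescence; % degradation normalised to DMSO (high control) and 2 μM reference BRM/BRG1 degrader (low control).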

T2 sequence (P51531 whole entry, the tested form may be a part): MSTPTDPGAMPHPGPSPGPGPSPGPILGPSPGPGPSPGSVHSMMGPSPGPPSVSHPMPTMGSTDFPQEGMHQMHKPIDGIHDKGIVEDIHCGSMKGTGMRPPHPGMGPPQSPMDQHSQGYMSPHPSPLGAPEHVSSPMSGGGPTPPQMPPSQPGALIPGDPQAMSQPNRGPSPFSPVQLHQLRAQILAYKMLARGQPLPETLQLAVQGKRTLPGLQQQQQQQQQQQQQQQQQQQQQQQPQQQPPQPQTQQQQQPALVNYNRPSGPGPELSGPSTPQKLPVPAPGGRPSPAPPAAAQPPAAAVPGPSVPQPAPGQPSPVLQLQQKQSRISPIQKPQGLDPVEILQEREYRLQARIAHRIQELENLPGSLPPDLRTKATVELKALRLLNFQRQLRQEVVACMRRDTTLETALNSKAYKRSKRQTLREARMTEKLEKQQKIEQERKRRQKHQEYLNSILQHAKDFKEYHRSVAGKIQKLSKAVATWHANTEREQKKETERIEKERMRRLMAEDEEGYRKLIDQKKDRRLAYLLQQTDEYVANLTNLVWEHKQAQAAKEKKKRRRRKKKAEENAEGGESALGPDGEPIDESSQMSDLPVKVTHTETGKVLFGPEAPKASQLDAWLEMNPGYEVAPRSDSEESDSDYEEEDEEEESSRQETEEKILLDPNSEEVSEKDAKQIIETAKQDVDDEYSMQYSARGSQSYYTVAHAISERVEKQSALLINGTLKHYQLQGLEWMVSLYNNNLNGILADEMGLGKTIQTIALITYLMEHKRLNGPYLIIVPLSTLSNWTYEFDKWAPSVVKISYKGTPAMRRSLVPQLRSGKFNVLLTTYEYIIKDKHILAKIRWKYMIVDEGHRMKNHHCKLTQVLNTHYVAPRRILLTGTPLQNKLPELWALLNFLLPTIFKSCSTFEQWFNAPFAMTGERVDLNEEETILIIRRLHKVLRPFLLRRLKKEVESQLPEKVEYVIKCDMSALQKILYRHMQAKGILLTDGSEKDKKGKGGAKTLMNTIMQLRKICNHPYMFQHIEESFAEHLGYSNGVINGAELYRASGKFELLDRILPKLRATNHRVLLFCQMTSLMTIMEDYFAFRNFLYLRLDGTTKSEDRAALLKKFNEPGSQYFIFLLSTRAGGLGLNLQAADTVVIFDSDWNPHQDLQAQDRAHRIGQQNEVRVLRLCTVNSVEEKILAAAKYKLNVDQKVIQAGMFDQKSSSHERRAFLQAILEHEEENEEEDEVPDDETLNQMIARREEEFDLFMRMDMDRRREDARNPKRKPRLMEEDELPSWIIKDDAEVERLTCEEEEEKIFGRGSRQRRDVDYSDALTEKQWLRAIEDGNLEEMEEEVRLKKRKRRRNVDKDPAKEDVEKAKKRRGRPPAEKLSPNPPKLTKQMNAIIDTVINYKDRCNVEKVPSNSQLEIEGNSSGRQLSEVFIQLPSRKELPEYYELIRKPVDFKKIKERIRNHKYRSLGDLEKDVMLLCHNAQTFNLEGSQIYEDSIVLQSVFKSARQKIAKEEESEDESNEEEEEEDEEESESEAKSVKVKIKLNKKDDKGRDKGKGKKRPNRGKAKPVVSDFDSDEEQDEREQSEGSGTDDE
T1 sequence (P51532 whole entry, the tested form may be a part): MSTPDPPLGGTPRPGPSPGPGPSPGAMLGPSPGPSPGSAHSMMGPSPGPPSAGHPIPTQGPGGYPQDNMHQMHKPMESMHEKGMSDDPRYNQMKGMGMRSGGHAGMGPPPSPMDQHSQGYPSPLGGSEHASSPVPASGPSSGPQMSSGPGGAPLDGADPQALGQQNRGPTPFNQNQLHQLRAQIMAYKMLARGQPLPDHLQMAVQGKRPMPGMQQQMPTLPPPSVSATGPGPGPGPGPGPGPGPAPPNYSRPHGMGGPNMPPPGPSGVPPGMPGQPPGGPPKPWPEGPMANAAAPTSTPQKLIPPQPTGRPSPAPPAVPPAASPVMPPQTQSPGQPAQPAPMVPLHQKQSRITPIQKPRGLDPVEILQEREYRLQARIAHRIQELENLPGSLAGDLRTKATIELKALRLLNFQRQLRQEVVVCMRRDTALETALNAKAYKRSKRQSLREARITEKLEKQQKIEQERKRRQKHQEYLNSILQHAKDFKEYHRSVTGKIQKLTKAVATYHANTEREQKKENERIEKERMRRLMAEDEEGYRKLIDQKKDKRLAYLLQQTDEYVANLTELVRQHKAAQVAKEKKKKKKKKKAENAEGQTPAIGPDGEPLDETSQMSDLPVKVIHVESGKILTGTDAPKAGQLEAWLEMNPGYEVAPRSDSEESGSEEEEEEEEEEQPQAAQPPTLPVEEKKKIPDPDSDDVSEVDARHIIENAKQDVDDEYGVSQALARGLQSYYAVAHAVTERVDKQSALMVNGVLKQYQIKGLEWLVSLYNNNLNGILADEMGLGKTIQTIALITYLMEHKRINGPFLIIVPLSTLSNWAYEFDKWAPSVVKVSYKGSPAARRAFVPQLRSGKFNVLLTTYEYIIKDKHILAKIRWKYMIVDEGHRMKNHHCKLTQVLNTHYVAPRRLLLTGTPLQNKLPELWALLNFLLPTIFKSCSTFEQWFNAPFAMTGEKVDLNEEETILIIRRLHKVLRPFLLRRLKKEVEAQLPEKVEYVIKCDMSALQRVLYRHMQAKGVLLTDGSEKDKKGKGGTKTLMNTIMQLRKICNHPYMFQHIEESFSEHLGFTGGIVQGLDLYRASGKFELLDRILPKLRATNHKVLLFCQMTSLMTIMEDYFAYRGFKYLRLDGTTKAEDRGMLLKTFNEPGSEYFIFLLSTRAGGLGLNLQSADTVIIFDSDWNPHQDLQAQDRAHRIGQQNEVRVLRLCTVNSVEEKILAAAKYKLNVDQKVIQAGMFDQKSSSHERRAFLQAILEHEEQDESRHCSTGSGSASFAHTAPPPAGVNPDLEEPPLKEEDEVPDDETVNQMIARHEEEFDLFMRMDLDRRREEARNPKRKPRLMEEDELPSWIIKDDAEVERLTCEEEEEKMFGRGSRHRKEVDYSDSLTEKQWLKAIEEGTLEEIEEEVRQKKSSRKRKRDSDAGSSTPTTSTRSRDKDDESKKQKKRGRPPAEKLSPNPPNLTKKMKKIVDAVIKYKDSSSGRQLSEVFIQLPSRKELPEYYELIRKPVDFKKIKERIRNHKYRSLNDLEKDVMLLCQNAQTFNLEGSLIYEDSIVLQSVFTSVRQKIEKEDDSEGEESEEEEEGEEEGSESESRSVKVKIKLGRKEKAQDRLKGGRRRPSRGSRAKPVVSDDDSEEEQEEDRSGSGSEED

Consider `Cc1ncsc1-c1ccc(CNC(=O)[C@@H]2C[C@@H](O)CN2C(=O)[C@@H](c2cc(-c3cnc(N4CC[C@@H](c5cc6nnc(-c7ccccc7O)cc6n5C5CC5)C4)nc3)no2)C(C)C)cc1` [Compound 89, (2S,4R)-1-((R)-2-(3-(2-((R)-3-(5-cyclopropyl-3-(2-hydroxyphenyl)-5H-pyrrolo[3,2-c]pyridazin-6-yl)pyrrolidin-1-yl)pyrimidin-5-yl)isoxazol-5-yl)-3-methylbutanoyl)-4-hydroxy-N-(4-(4-methylthiazol-5-yl)benzyl)pyrrolidine-2-carboxamide], for which, in experiment [1], the Dmax is over 50% and the DC50 is over 10 nM. Moreover, at HiBit-BRM fusion protein, the “BRM HiBit Degradation Maximum (%)” value is “A (“A” indicates maximum degradation ≥75%)” and the DC50 was over 10 nM.

Regarding `Cc1ncsc1-c1ccc([C@H](C)NC(=O)[C@@H]2C[C@@H](O)CN2C(=O)[C@@H](C(C)C)n2cc(-c3cnc(N4CC[C@@H](c5cc6nnc(-c7ccccc7O)cc6n5C5CC5)C4)nc3)nn2)cc1` [Compound 72, (2S,4R)-1-((R)-2-(4-(2-((R)-3-(5-cyclopropyl-3-(2-hydroxyphenyl)-5H-pyrrolo[3,2-c]pyridazin-6-yl)pyrrolidin-1-yl)pyrimidin-5-yl)-1H-1,2,3-triazol-1-yl)-3-methylbutanoyl)-4-hydroxy-N-((S)-1-(4-(4-methylthiazol-5-yl)phenyl)ethyl)pyrrolidine-2-carboxamide], the Dmax in experiment [1] was under 50%. At HiBit-BRM fusion protein, the “BRM HiBit Degradation Maximum (%)” value is “A (“A” indicates maximum degradation ≥75%)” and the DC50 is under 10 nM.

`Cc1ncsc1-c1ccc([C@H](C)NC(=O)[C@@H]2C[C@@H](O)CN2C(=O)[C@@H](c2cc(-c3cnc(N4CC[C@@H](c5cc6nnc(-c7ccccc7O)cc6n5C5CCC5)C4)nc3)no2)C(C)C)cc1` [Compound 102, (2S,4R)-1-((R)-2-(3-(2-((R)-3-(5-cyclobutyl-3-(2-hydroxyphenyl)-5H-pyrrolo[3,2-c]pyridazin-6-yl)pyrrolidin-1-yl)pyrimidin-5-yl)isoxazol-5-yl)-3-methylbutanoyl)-4-hydroxy-N-((S)-1-(4-(4-methylthiazol-5-yl)phenyl)ethyl)pyrrolidine-2-carboxamide]: the Dmax in experiment [1] is under 50%. For the same compound, on HiBit-BRM fusion protein, the “BRM HiBit Degradation Maximum (%)” value is on record as “A (“A” indicates maximum degradation ≥75%)” and the DC50 is under 10 nM.

For `Cc1ncsc1-c1ccc([C@H](C)NC(=O)[C@@H]2C[C@@H](O)CN2C(=O)[C@@H](c2cc(-c3cnc(N4CCC(c5cc6nnc(-c7ccccc7O)cc6n5C5(C)CC5)CC4)nc3)no2)C(C)C)cc1` [Compound 43], the Dmax in experiment [1] was under 50%. Also, at HiBit-BRM fusion protein, the “BRM HiBit Degradation Maximum (%)” value is on record as “A (“A” indicates maximum degradation ≥75%)” and the DC50 was under 10 nM.

In the case of `CC(C)C(C(=O)N1C[C@H](O)C[C@H]1C(=O)N[C@@H](C)c1ccccc1)c1cc(N2CC3(CC(c4cc5nnc(-c6ccccc6O)cc5n4C4CCC4)C3)C2)no1` (stereo partly drawn) [Compound 49, (2S,4R)-1-[2-(3-{6-[5-cyclobutyl-3-(2-hydroxyphenyl)pyrrolo[3,2-c]pyridazin-6-yl]-2-azaspiro[3.3]heptan-2-yl}-1,2-oxazol-5-yl)-3-methylbutanoyl]-4-hydroxy-N-[(1S)-1-phenylethyl]pyrrolidine-2-carboxamide], in experiment [1], the Dmax is under 50%. In addition, at HiBit-BRM fusion protein, the “BRM HiBit Degradation Maximum (%)” value was “A (“A” indicates maximum degradation ≥75%)” and the DC50 is over 10 nM.

Turning to `CCn1c(C2CCN(c3ncc(-c4cc([C@H](C(=O)N5C[C@H](O)C[C@H]5C(=O)N[C@@H](C)c5ccc(-c6scnc6C)cc5)C(C)C)on4)cn3)CC2)cc2nnc(-c3ccccc3O)cc21` [Compound 23, (2S,4R)-1-[(2R)-2-[3-(2-{4-[5-ethyl-3-(2-hydroxyphenyl)pyrrolo[3,2-c]pyridazin-6-yl]piperidin-1-yl}pyrimidin-5-yl)-1,2-oxazol-5-yl]-3-methylbutanoyl]-4-hydroxy-N-[(1S)-1-[4-(4-methyl-1,3-thiazol-5-yl)phenyl]ethyl]pyrrolidine-2-carboxamide], in experiment [1], the Dmax was over 50% and the DC50 was over 10 nM. Besides, at HiBit-BRM fusion protein, the “BRM HiBit Degradation Maximum (%)” value is “A (“A” indicates maximum degradation ≥75%)” and the DC50 is under 10 nM.

Regarding `Cc1ncsc1-c1ccc([C@H](C)NC(=O)[C@@H]2C[C@@H](O)CN2C(=O)[C@@H](c2cc(OCCCN3CC(c4cc5nnc(-c6ccccc6O)cc5n4C)C3)no2)C(C)C)cc1` [Compound 11, (2S,4R)-4-hydroxy-1-((R)-2-(3-(3-(3-(3-(2-hydroxyphenyl)-5-methyl-5H-pyrrolo[3,2-c]pyridazin-6-yl)azetidin-1-yl)propoxy)isoxazol-5-yl)-3-methylbutanoyl)-N-((S)-1-(4-(4-methylthiazol-5-yl)phenyl)ethyl)pyrrolidine-2-carboxamide], the Dmax in experiment [1] is under 50%. At HiBit-BRM fusion protein, the “BRM HiBit Degradation Maximum (%)” value is “A (“A” indicates maximum degradation ≥75%)” and the DC50 was over 10 nM.

Turning to `Cc1ncsc1-c1ccc([C@H](C)NC(=O)[C@@H]2C[C@@H](O)CN2C(=O)[C@@H](c2cc(-c3cnc(N4CC5(CC(c6cc7nnc(-c8ccccc8O)cc7n6C6CCC6)C5)C4)nc3)no2)C(C)C)cc1` [Compound 62, (2S,4R)-1-((R)-2-(3-(2-(6-(5-cyclobutyl-3-(2-hydroxyphenyl)-5H-pyrrolo[3,2-c]pyridazin-6-yl)-2-azaspiro[3.3]heptan-2-yl)pyrimidin-5-yl)isoxazol-5-yl)-3-methylbutanoyl)-4-hydroxy-N-((S)-1-(4-(4-methylthiazol-5-yl)phenyl)ethyl)pyrrolidine-2-carboxamide], in experiment [1], the Dmax was over 50% and the DC50 is over 10 nM. In addition, at HiBit-BRM fusion protein, the “BRM HiBit Degradation Maximum (%)” value was “A (“A” indicates maximum degradation ≥75%)” and the DC50 is under 10 nM.

For the compound `Cc1ncsc1-c1ccc([C@H](C)NC(=O)[C@@H]2C[C@@H](O)CN2C(=O)[C@@H](c2cc(OCCN3CCN(c4cc5nnc(-c6ccccc6O)cc5n4C)CC3)no2)C(C)C)cc1` [Compound 27, (2S,4R)-4-hydroxy-1-[(2R)-2-[3-(2-{4-[3-(2-hydroxyphenyl)-5-methylpyrrolo[3,2-c]pyridazin-6-yl]piperazin-1-yl}ethoxy)-1,2-oxazol-5-yl]-3-methylbutanoyl]-N-[(1S)-1-[4-(4-methyl-1,3-thiazol-5-yl)phenyl]ethyl]pyrrolidine-2-carboxamide], in experiment [1], the Dmax is over 75% and the DC50 is over 10 nM. Further, on HiBit-BRM fusion protein, the “BRM HiBit Degradation Maximum (%)” value is recorded as “A (“A” indicates maximum degradation ≥75%)” and the DC50 was under 10 nM.

Take `C#Cc1ccc([C@H](C)NC(=O)[C@@H]2C[C@@H](O)CN2C(=O)C(c2cc(N3CC4(CC(c5cc6nnc(-c7ccccc7O)cc6n5C5CCC5)C4)C3)no2)C(C)C)c(Cl)c1` (stereo partly drawn) [Compound 121, (2S,4R)-N-((S)-1-(2-chloro-4-ethynylphenyl)ethyl)-1-(2-(3-(6-(5-cyclobutyl-3-(2-hydroxyphenyl)-5H-pyrrolo[3,2-c]pyridazin-6-yl)-2-azaspiro[3.3]heptan-2-yl)isoxazol-5-yl)-3-methylbutanoyl)-4-hydroxypyrrolidine-2-carboxamide]: in experiment [1], the Dmax is under 50%. On HiBit-BRM fusion protein, the “BRM HiBit Degradation Maximum (%)” value is recorded as “A (“A” indicates maximum degradation ≥75%)” and the DC50 was over 10 nM.

For the compound `Cc1ncsc1-c1ccc([C@H](C)NC(=O)[C@@H]2C[C@@H](O)CN2C(=O)[C@@H](c2cc(-c3cnc(N4CC[C@@H](c5cc6nnc(-c7ccccc7O)cc6n5C56CC(C5)C6)C4)nc3)no2)C(C)C)cc1` [Compound 94, (2S,4R)-1-((R)-2-(3-(2-((R)-3-(5-(bicyclo[1.1.1]pentan-1-yl)-3-(2-hydroxyphenyl)-5H-pyrrolo[3,2-c]pyridazin-6-yl)pyrrolidin-1-yl)pyrimidin-5-yl)isoxazol-5-yl)-3-methylbutanoyl)-4-hydroxy-N-((S)-1-(4-(4-methylthiazol-5-yl)phenyl)ethyl)pyrrolidine-2-carboxamide], the Dmax in experiment [1] is under 50%. Besides, on HiBit-BRM fusion protein, the “BRM HiBit Degradation Maximum (%)” value is “A (“A” indicates maximum degradation ≥75%)” and the DC50 is under 10 nM.

Take `Cc1ncsc1-c1ccc([C@H](C)NC(=O)[C@@H]2C[C@@H](O)CN2C(=O)[C@H](c2cc(-c3cnc(N4CCC(c5cc6nnc(-c7ccccc7O)cc6[nH]5)CC4)nc3)no2)C(C)C)cc1` [Compound 19, (2S,4R)-4-hydroxy-1-[(2S)-2-[3-(2-{4-[3-(2-hydroxyphenyl)-5H-pyrrolo[3,2-c]pyridazin-6-yl]piperidin-1-yl}pyrimidin-5-yl)-1,2-oxazol-5-yl]-3-methylbutanoyl]-N-[(1S)-1-[4-(4-methyl-1,3-thiazol-5-yl)phenyl]ethyl]pyrrolidine-2-carboxamide]: the Dmax in experiment [1] was under 50%. Besides, on HiBit-BRM fusion protein, the “BRM HiBit Degradation Maximum (%)” value is on record as “B (“B” indicates maximum degradation ≥50%)” and the DC50 was over 10 nM.

With `Cc1ncsc1-c1ccc([C@H](C)NC(=O)[C@@H]2C[C@@H](O)CN2C(=O)[C@H](c2cc(-c3ccnc(N4CC[C@H](c5cc6nnc(-c7ccccc7O)cc6n5C5CC5)C4)n3)no2)C(C)C)cc1` [Compound 40], the Dmax in experiment [1] is under 50%. The “BRM HiBit Degradation Maximum (%)” value at HiBit-BRM fusion protein is given as “C (“C” indicates maximum degradation <50%)”.
